For one assay, the target named is T1, GST tagged PIP4KtypeIIA (Homo sapiens, UniProt P48426).
T1 construct: made in house; host or cells: E. coli
T1 sequence (P48426 1-406): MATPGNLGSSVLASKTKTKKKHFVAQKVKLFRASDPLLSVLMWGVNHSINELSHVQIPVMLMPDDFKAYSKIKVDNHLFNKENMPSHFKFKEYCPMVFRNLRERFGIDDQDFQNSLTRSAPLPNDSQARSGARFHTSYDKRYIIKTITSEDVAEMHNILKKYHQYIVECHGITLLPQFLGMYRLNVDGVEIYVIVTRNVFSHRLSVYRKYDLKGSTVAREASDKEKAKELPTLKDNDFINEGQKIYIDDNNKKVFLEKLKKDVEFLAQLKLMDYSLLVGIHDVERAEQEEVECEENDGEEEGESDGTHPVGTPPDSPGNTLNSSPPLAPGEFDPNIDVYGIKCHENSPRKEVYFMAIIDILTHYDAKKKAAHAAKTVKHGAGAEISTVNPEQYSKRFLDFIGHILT
The assay can be described thus: ADP-glo kinase assay PIP4K 2A (PIP4KtypeIIA inhibition assay). Format: biochemical. The following applies: Table 3; compounds listed under IC50 range headings; 10 uM ATP, 0.5 nM PIP4KIIA. An excerpt: GST tagged PIP4KtypeIIA and B enzymes were overexpressed in E. Coli and purified to >80% homogeneity. Phosphatidyl inositol-5-phosphate (PI5P, Cat. #850152, Avanti Polar Lipids Inc.) was used as the lipid substrate and phosphatidyl ethanolamine (DOPE 18:1, Cat. #850725, Avanti Polar Lipids Inc.) was used as the carrier lipid for assays. Ultrapure ATP and GTP was purchased from Bellbrooke Labs. ADP Glo reagents were obtained from Promega. Transcreener FI reagent was obtained from Bellbrooke labs.
1. HEPES buffer mix: 200 mM HEPES pH 7.4, 50 mM MgCl2, 0.05% v/v triton×100
2. HNE buffer: 20 mM HEPES, pH 7.4, 100 mM NaCl, 0.5 mM EGTA
3. H:E buffer: 30 mM HEPES, pH 7.4, 1 mM EGTA
Enzyme preparation: GST-tagged PIP4KtypeIIA (5 uL, 1.43 mg/mL) was diluted (1:10) to 50 uL using HNE buffer. From the 1:10 diluted stock, a 6.4 uL aliquot was diluted further to 5 mL using HNE buffer to yield 5× enzyme stock (2.5 nM).
Lipid Preparation: In a 10 mL pyrex glass vial, lug of PI5P and lug of DOPE were suspended in 2.5 mL of HEPES buffer mix and 2.5 mL of H:E buffer. The contents were mixed and sonicated for 3 min to yield a translucent lipid stock.
Compound Preparation: Compounds were stored as 5 mM stocks in neat DMSO as room temperature in glass vials. 5 mM stocks were diluted to 2 mM and then serially diluted (3×) in neat DMSO in 96 well polypropylene plates. From the serially diluted stocks, 3 uL was delivered into 250 uL of 25% DMSO (in water) to generate 5× compound stocks. Typically, the highest compound conc. was 24 uM.
The assay volume was kept at 25 uL. To each well of the reaction plate, 10 uL of lipid stock (1:1 ratio PI5P:DOPE) was delivered. This was followed by the addition of 5 uL of compound in 25% DMSO. Then, to each well, 5 uL of 2.5 nM (5×) typeIIA enzyme was delivered. The contents were mixed well and incubated for 1 h at 27 C. After 1 h, reaction was initiated by adding 5 uL of 50 uM ATP and the contents were mixed well with a multi-channel pipetteman. The final concentration of the reagents are as follows: 50 mM HEPES, pH 7.3, 10 mM MgCl2, 20 mM NaCl, 0.01% v/v triton-X100, 5% DMSO, 10 uM ATP, 80 uM (2 ug) PI5P, 2 ug DOPE, and 0.5 nM PIP4KIIA. Typically, the highest conc. of compounds was 4.8 uM and the lowest conc. was 0.
After 1 hr, the reaction was quenched by adding 25 uL of ADP Glo reagent. The contents were incubated for 1 hr. Afterwards, 50 uL of kinase detection reagent was delivered. The contents were incubated for another hour. The luminescence was read using Molecular Devices Paradigm plate reader. […] The blanks were averaged and subtracted from all other wells. Using a calibration curve, RLU was converted to uM ADP (product). IC50 was calculated by plotting the residual activity (expressed as % No inhibitor control) vs. log [Inh. conc.]
Background: In ADP-Glo the light output rises with the ADP produced.

The target of a further assay is T2, GST tagged PIP4KtypeIIB (Homo sapiens, UniProt P78356).
T2 construct: made in house; host or cells: E. coli
T2 sequence (P78356 1-416): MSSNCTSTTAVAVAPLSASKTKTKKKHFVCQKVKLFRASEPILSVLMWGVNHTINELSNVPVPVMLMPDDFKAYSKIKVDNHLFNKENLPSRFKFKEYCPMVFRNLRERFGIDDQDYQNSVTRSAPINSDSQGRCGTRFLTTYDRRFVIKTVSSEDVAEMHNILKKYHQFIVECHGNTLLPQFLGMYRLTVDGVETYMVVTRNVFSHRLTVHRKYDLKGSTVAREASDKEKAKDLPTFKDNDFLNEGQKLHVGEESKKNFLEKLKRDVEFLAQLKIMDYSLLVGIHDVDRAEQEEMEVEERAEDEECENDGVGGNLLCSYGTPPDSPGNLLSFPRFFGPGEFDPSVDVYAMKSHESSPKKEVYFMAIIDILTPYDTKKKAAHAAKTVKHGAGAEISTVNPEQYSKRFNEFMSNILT
As to the kind of experiment: Trans-FI P kinase assay PIP4K2B (PIP4KtypeIIB inhibition assay). The assay is classed as biochemical. The following applies: Table 4; compounds listed under IC50 range headings; 100 uM GTP, 5 nM PIP4KIIB; read-out: Trans-FI P kinase assays: PIP4K2B IC50. In short, it runs like this:
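Purified GST-PIP4KIIB (5 nM final), 1 h preincubation with compound at 27 C, then 2 h reaction with 100 uM GTP and 80 uM PI5P plus DOPE carrier lipid in pH 7.3 HEPES/MgCl2/Triton buffer with 5% DMSO. GDP read by Transcreener FI fluorescence against a calibration curve; IC50 from % no-inhibitor activity vs log concentration.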

One may read the IC50 as the concentration at which inhibition is half-maximal.

Turning to `CN(C)C(=O)c1ccc(-c2cc(-c3cc(Nc4cc(N)ccn4)ncn3)cnc2N)nc1` [Example 222, 2′-amino-5′-(6-((4-aminopyridin-2-yl)amino)pyrimidin-4-yl)-N,N-dimethyl-[2,3′-bipyridine]-5-carboxamide], the values for the IC50 on GST tagged PIP4KtypeIIA and at GST tagged PIP4KtypeIIB were over 5000 nM and 2500 to 5000 nM, respectively.

Take `CN(C)C(=O)c1ccc(-c2cc(-c3ccnc4[nH]c(C(=O)N[C@H]5COC[C@H]5N)cc34)cnc2N)nc1` [Example 226, 4-(2′-amino-5-(dimethylcarbamoyl)-[2,3′-bipyridin]-5′-yl)-N-((3R,4S)-4-aminotetrahydrofuran-3-yl)-1H-pyrrolo[2,3-b]pyridine-2-carboxamide]: the results for the IC50 against GST tagged PIP4KtypeIIA and on GST tagged PIP4KtypeIIB were 1000 to 2500 nM and 10 to 100 nM, respectively.

For the compound `COCCNC(=O)c1cc2c(-c3cncc(-c4ccc(N5CCCC5=O)cc4)c3)ccnc2[nH]1` [Example 228, N-(2-methoxyethyl)-4-(5-(4-(2-oxopyrrolidin-1-yl)phenyl)pyridin-3-yl)-1H-pyrrolo[2,3-b]pyridine-2-carboxamide], the values for the half-maximal inhibitory concentration (IC50) at GST tagged PIP4KtypeIIA and on GST tagged PIP4KtypeIIB were 100 to 1000 nM and 10 to 100 nM, respectively.

For the compound `O=C(c1cc2c(-c3cncc(-c4ccc(N5CCCC5=O)cc4)c3)ccnc2[nH]1)N1CCOCC1` [Example 229, 1-(4-(5-(2-(morpholine-4-carbonyl)-1H-pyrrolo[2,3-b]pyridin-4-yl)pyridin-3-yl)phenyl)pyrrolidin-2-one], the IC50 against GST tagged PIP4KtypeIIA and at GST tagged PIP4KtypeIIB was 100 to 1000 nM throughout.

In the case of `O=C(NCc1ccccc1)c1cc2c(-c3cncc(-c4ccc(N5CCCC5=O)cc4)c3)ccnc2[nH]1` [Example 232, N-benzyl-4-(5-(4-(2-oxopyrrolidin-1-yl)phenyl)pyridin-3-yl)-1H-pyrrolo[2,3-b]pyridine-2-carboxamide], the IC50 is 100 to 1000 nM against GST tagged PIP4KtypeIIA and 10 to 100 nM at GST tagged PIP4KtypeIIB.

With `O=C(NCc1ccncc1)c1cc2c(-c3cncc(-c4ccc(N5CCCC5=O)cc4)c3)ccnc2[nH]1` [Example 233, 4-(5-(4-(2-oxopyrrolidin-1-yl)phenyl)pyridin-3-yl)-N-(pyridin-4-ylmethyl)-1H-pyrrolo[2,3-b]pyridine-2-carboxamide], the IC50 was 100 to 1000 nM against GST tagged PIP4KtypeIIA and 10 to 100 nM on GST tagged PIP4KtypeIIB.

In the case of `CC(C)CNC(=O)c1cc2c(-c3cncc(-c4ccc(N5CCCC5=O)cc4)c3)ccnc2[nH]1` [Example 234, N-isobutyl-4-(5-(4-(2-oxopyrrolidin-1-yl)phenyl)pyridin-3-yl)-1H-pyrrolo[2,3-b]pyridine-2-carboxamide], the IC50 against GST tagged PIP4KtypeIIA was in the range of 100 to 1000 nM; at GST tagged PIP4KtypeIIB, 10 to 100 nM.

With `O=C(c1cc2c(-c3cncc(-c4ccc(N5CCCC5=O)cc4)c3)ccnc2[nH]1)N1CCCC1` [Example 235, 1-(4-(5-(2-(pyrrolidine-1-carbonyl)-1H-pyrrolo[2,3-b]pyridin-4-yl)pyridin-3-yl)phenyl)pyrrolidin-2-one], the IC50 on GST tagged PIP4KtypeIIA and at GST tagged PIP4KtypeIIB was 100 to 1000 nM throughout.

Consider `O=C(NCCc1ccccc1)c1cc2c(-c3cncc(-c4ccc(N5CCCC5=O)cc4)c3)ccnc2[nH]1` [Example 236, 4-(5-(4-(2-oxopyrrolidin-1-yl)phenyl)pyridin-3-yl)-N-phenethyl-1H-pyrrolo[2,3-b]pyridine-2-carboxamide], for which the IC50 at GST tagged PIP4KtypeIIA fell in the range of 100 to 1000 nM; at GST tagged PIP4KtypeIIB, 10 to 100 nM.

As for `O=C(NCCc1cccnc1)c1cc2c(-c3cncc(-c4ccc(N5CCCC5=O)cc4)c3)ccnc2[nH]1` [Example 237, 4-(5-(4-(2-oxopyrrolidin-1-yl)phenyl)pyridin-3-yl)-N-(2-(pyridin-3-yl)ethyl)-1H-pyrrolo[2,3-b]pyridine-2-carboxamide], the half-inhibitory concentration (IC50) on GST tagged PIP4KtypeIIA is 100 to 1000 nM; on GST tagged PIP4KtypeIIB it was 10 to 100 nM.

In the case of `O=C(NCc1cccnc1)c1cc2c(-c3cncc(-c4ccc(N5CCCC5=O)cc4)c3)ccnc2[nH]1` [Example 238, 4-(5-(4-(2-oxopyrrolidin-1-yl)phenyl)pyridin-3-yl)-N-(pyridin-3-ylmethyl)-1H-pyrrolo[2,3-b]pyridine-2-carboxamide], the IC50 against GST tagged PIP4KtypeIIA fell in the range of 100 to 1000 nM; on GST tagged PIP4KtypeIIB, 10 to 100 nM.

With `O=C(NCc1ccccn1)c1cc2c(-c3cncc(-c4ccc(N5CCCC5=O)cc4)c3)ccnc2[nH]1` [Example 239, 4-(5-(4-(2-oxopyrrolidin-1-yl)phenyl)pyridin-3-yl)-N-(pyridin-2-ylmethyl)-1H-pyrrolo[2,3-b]pyridine-2-carboxamide], the IC50 against GST tagged PIP4KtypeIIA was in the range of 100 to 1000 nM; on GST tagged PIP4KtypeIIB it was 10 to 100 nM.

Consider `CNC(=O)c1cc2c(-c3cncc(-c4ccc(N5CCCC5=O)cc4)c3)ccnc2[nH]1` [Example 240, N-methyl-4-(5-(4-(2-oxopyrrolidin-1-yl)phenyl)pyridin-3-yl)-1H-pyrrolo[2,3-b]pyridine-2-carboxamide], for which the IC50 lay in the range of 100 to 1000 nM against GST tagged PIP4KtypeIIA and 10 to 100 nM at GST tagged PIP4KtypeIIB.

As to `O=C(NC1CC1)c1cc2c(-c3cncc(-c4ccc(N5CCCC5=O)cc4)c3)ccnc2[nH]1` [Example 242, N-cyclopropyl-4-(5-(4-(2-oxopyrrolidin-1-yl)phenyl)pyridin-3-yl)-1H-pyrrolo[2,3-b]pyridine-2-carboxamide], the IC50 at GST tagged PIP4KtypeIIA was 100 to 1000 nM; on GST tagged PIP4KtypeIIB, 10 to 100 nM.

For `O=C(NCCc1ncc[nH]1)c1cc2c(-c3cncc(-c4ccc(N5CCCC5)cc4)c3)ccnc2[nH]1` [Example 244, N-(2-(1H-imidazol-2-yl)ethyl)-4-(5-(4-(pyrrolidin-1-yl)phenyl)pyridin-3-yl)-1H-pyrrolo[2,3-b]pyridine-2-carboxamide], the IC50 at GST tagged PIP4KtypeIIA lay in the range of 100 to 1000 nM; at GST tagged PIP4KtypeIIB it was 10 to 100 nM.

As to `O=C(NCc1nc2ccccc2o1)c1cc2c(-c3cncc(-c4ccc(N5CCCC5=O)cc4)c3)ccnc2[nH]1` [Example 245, N-(benzo[d]oxazol-2-ylmethyl)-4-(5-(4-(2-oxopyrrolidin-1-yl)phenyl)pyridin-3-yl)-1H-pyrrolo[2,3-b]pyridine-2-carboxamide], the IC50 against GST tagged PIP4KtypeIIA was over 5000 nM; on GST tagged PIP4KtypeIIB it was 10 to 100 nM.

Regarding `O=C(NCCc1ccccn1)c1cc2c(-c3cncc(-c4ccc(N5CCCC5=O)cc4)c3)ccnc2[nH]1` [Example 246, 4-(5-(4-(2-oxopyrrolidin-1-yl)phenyl)pyridin-3-yl)-N-(2-(pyridin-2-yl)ethyl)-1H-pyrrolo[2,3-b]pyridine-2-carboxamide], the IC50 against GST tagged PIP4KtypeIIA was in the range of 100 to 1000 nM; on GST tagged PIP4KtypeIIB, 10 to 100 nM.

For the origin of these results see patent US11919902B2, “Aryl-bipyridine amine derivatives as phosphatidylinositol phosphate kinase inhibitors” (HiberCell, Inc., priority 2017, dated 2024).
